The text below walks through data of BindingDB's records for doi:10.1016/j.ejmech.2015.01.009 (Universiti Teknologi Mara (Uitm), 2015).

This test can be described thus: Inhibition of alpha-glucosidase (unknown origin) using pNPG substrate incubated for 15 mins by microplate reader based method.
In the case of `COc1ccc(/C=N/NC(=O)c2ccc(-c3nc4ccccc4s3)cc2)c(O)c1`, the IC50 is 6.97 µM. `COc1cccc(/C=N/NC(=O)c2ccc(-c3nc4ccccc4s3)cc2)c1` yielded an IC50 of 11.1 µM. `O=C(N/N=C\c1ccccn1)c1ccc(-c2nc3ccccc3s2)cc1` came in with an IC50 of 10.2 µM. As for `COc1ccc(/C=N/NC(=O)c2ccc(-c3nc4ccccc4s3)cc2)c(I)c1O`, 44.8 µM corresponded to half-maximal inhibition (IC50). The value for `O=C(N/N=C/c1ccc(O)c(O)c1)c1ccc(-c2nc3ccccc3s2)cc1` was 15.1 µM. For `COc1ccc(/C=N/NC(=O)c2ccc(-c3nc4ccccc4s3)cc2)cc1`, the 50% inhibitory concentration (IC50) amounted to 18.3 µM. As for `O=C(N/N=C/c1ccc(F)c(Br)c1)c1ccc(-c2nc3ccccc3s2)cc1`, the IC50 amounted to 28 µM. `COc1ccc(O)c(/C=N/NC(=O)c2ccc(-c3nc4ccccc4s3)cc2)c1`: the IC50 amounted to 6.5 µM. Compared with the last compound, the IC50 is about 4.3-fold lower. Regarding `O=C(N/N=C/c1cccs1)c1ccc(-c2nc3ccccc3s2)cc1`, the 50% inhibitory concentration (IC50) stood at 8.48 µM. The IC50 values of the last two compounds are within 1.5-fold of each other. As for `O=C(N/N=C/c1ccc(O)c(Br)c1)c1ccc(-c2nc3ccccc3s2)cc1`, 8.07 µM corresponded to half-maximal inhibition (IC50). `O=C(N/N=C/c1cc(O)cc(O)c1)c1ccc(-c2nc3ccccc3s2)cc1` registered an IC50 of 11.1 µM. The compound `COc1cc(/C=N/NC(=O)c2ccc(-c3nc4ccccc4s3)cc2)cc(OC)c1` came in with an IC50 of 16.2 µM. In the case of `O=C(N/N=C/c1ccc(O)cc1O)c1ccc(-c2nc3ccccc3s2)cc1`, 5.58 µM corresponded to half-maximal inhibition (IC50). Consider `O=C(N/N=C/c1ccccc1)c1ccc(-c2nc3ccccc3s2)cc1`, for which the IC50 amounted to 8.05 µM. For `O=C(N/N=C/c1ccccc1O)c1ccc(-c2nc3ccccc3s2)cc1`, it took 5.55 µM to reach half-maximal inhibition (IC50). In turn, `O=C(N/N=C/c1ccc(F)cc1)c1ccc(-c2nc3ccccc3s2)cc1` returned an IC50 of 7.12 µM. On to `O=C(N/N=C/c1ccc(O)cc1)c1ccc(-c2nc3ccccc3s2)cc1`, for which inhibition was half-maximal at 11.3 µM (IC50). Against the preceding compound, the IC50 is about 1.6-fold higher. Turning to `O=C(N/N=C/c1cccc(O)c1O)c1ccc(-c2nc3ccccc3s2)cc1`, the half-inhibitory concentration (IC50) turned out to be 11.2 µM. The compound `O=C(N/N=C/c1cccc(O)c1)c1ccc(-c2nc3ccccc3s2)cc1` yielded an IC50 of 9.21 µM.

As to `O=C(N/N=C/c1ccc([N+](=O)[O-])cc1)c1ccc(-c2nc3ccccc3s2)cc1`, inhibition was half-maximal at 26.4 µM (IC50). Turning to `O=C(N/N=C/c1cc(O)ccc1O)c1ccc(-c2nc3ccccc3s2)cc1`, it took 11.8 µM to reach half-maximal inhibition (IC50). The value for `COc1cc(/C=N/NC(=O)c2ccc(-c3nc4ccccc4s3)cc2)ccc1O` was 53.3 µM; that for `O=C(N/N=C/c1ccc(Cl)cc1)c1ccc(-c2nc3ccccc3s2)cc1` was 5.31 µM; that for `O=C(N/N=C\c1ccco1)c1ccc(-c2nc3ccccc3s2)cc1` was 12.8 µM. As for `O=C(N/N=C/c1c(O)cc(O)cc1O)c1ccc(-c2nc3ccccc3s2)cc1`, the IC50 came to 8.37 µM. Against the preceding compound, the IC50 is about 1.5-fold lower.

Broadly, the IC50 is the concentration at which inhibition is half-maximal. A high value points to weaker potency in that assay.
